Measured values taken from US20170303557A1, “PURIFICATION OF POLYPHENOLS” (NESTEC S.A., priority 2014, published 2017).

Assay: Model study: degradation of 5-CQA and formation of its ethylester in 75% ethanolic solution (LC/MS-DAD)
Assay type: physicochemical
Details: 75% ethanol
Experimental: During the experiment 5-CQA was stored in the presence of ethanol (75% ethanolic solution) by varying the following parameters pH, temperature and time.
The process was conducted under the following conditions using 5-CQA esterification as the model.
For each trial 10 mg of 5-CQA were dissolved in 40 mL of a 75% ethanolic solution. • pH studies: The pH was adjusted to pH 1, pH 2.7 and pH 4 with hydrochloric acid (32%) and to pH 12 by using NaOH solution (4 N) and all samples were kept in a lab oven at a temperature of 80° C. for 2 hours. • Temperature studies: CQA solutions were adjusted to pH 1 with hydrochloric acid (32%) and kept for 2 hours either at room temperature, 50° C. or 80° C. in a lab oven. • Time studies: 5-CQA solutions were adjusted to pH 1 and kept at room temperature or 50° C. for 1 h, 2 h, 3 h and 36 h (RT only). • System: The analysis was performed on a LC-DAD-MS system using LCQ Deca mass spectrometer (Thermo Finnigan), with a DAD detector (Thermo Finnigan) and a Rheos HPLC system (Thermo Finnigan). • Sample Preparation: For each parameter an aliquot of the solution was diluted 1:10 and directly used for LC/MS-DAD analysis. • HPLC Method: The separation was performed at ambient temperature on a Zorbax Eclipse C18 column, 5 μm, 150*3 mm (Agilent). A binary gradient of A/B (A: 0.1% formic acid, B: methanol) was applied. • MS parameters: The Mass spectrometer used is the LCQ-Deca operated in FullScan and data dependant MS/MS mode (m/z 100-1000) for compound identification.

ester detectable as compared to the native 5-CQA (pH 1, 50° C., 2 h): Up to 40%
ester formed (pH 1, 50° C., period corresponding to desorption duration of up-scaled protocol (within first 3 h)): 30%
5-CQA transformed into its ethylester (pH 1, RT, 2 h): only a small amount
ester formed (pH 1, room temperature, 3 h): 3%
ester formed (pH 1, room temperature, 36 h): 14%
5-CQA esterification (pH 2.7, 80° C., 2 h): significantly reduced
degradation of 5-CQA (pH 4, 80° C., 2 h): almost not degraded
SMILES: O=C(/C=C/c1ccc(O)c(O)c1)O[C@@H]1C[C@@](O)(C(=O)O)C[C@@H](O)[C@@H]1O [5-CQA, 5-caffeoyl quinic acid]
ester as compared to 5-CQA (pH 1, 80° C., 2 h): same amounts of the ester as compared to 5-CQA
transformation of 5-CQA into its ethylester (pH 1, 80° C., 2 h): rapid transformation of 5-CQA into its ester
degradation of 5-CQA (pH 12, 80° C., 2 h): hydrolysis of 5-CQA yielding caffeic and quinic acid
